According to patent US8450527B2, “Amine derivative compounds for treating ophthalmic diseases and disorders” (Acucela Inc., priority 2007, dated 2013):

Legend:
[1] = biological target: T1, isomerase (Mus musculus, UniProt Q91ZQ5); experiment: In vivo murine isomerase assay (recovery of 11-cis-retinal after photobleaching); set-up: species or system CD-1 (albino) male mice; conditions: for % Inhibition 1 mg/kg 4 h / % Inhibition 1 mg/kg 24 h / % Inhibition 5 mg/kg 4 h / % Inhibition 5 mg/kg 24 h: CD1 male mice; for % Inhibition 1 mg/kg 4 h / % Inhibition 1 mg/kg 24 h: single oral dose 1 mg/kg; for % Inhibition 1 mg/kg 4 h / % Inhibition 5 mg/kg 4 h: photobleaching 4 h post dosing; for % Inhibition 1 mg/kg 24 h / % Inhibition 5 mg/kg 24 h: photobleaching 24 h post dosing; for % Inhibition 5 mg/kg 4 h / % Inhibition 5 mg/kg 24 h: single oral dose 5 mg/kg; for ED50: mouse, po, read-out: ED50 (dose of compound that gives 50% inhibition of 11-cis retinal (oxime) recovery), CD-1 male mice, oral gavage, photobleached 4 hours after dosing
T1 construct: The recovery of 11-cis-retinal after bleaching can be used to estimate the activity of isomerase in vivo; from tissue; host or cells: eye (RPE) of living CD-1 albino male mice
T1 sequence (Q91ZQ5 1-533): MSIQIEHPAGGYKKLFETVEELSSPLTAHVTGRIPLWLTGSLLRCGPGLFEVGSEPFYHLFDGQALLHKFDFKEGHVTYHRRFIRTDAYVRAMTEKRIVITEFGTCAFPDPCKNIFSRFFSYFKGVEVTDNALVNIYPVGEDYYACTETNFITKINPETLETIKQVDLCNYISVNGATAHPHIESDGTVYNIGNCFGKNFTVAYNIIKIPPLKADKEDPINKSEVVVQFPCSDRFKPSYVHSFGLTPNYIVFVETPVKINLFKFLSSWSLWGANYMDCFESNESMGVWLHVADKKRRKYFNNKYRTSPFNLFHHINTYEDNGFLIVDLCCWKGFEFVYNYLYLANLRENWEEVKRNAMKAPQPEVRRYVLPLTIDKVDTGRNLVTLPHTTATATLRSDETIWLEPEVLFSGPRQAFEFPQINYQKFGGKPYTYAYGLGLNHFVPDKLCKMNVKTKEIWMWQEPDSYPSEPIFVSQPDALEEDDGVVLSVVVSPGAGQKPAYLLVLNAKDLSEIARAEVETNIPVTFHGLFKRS
Method: The capability of amine derivative compounds to inhibit isomerase was determined by an in vivo murine isomerase assay. Brief exposure of the eye to intense light (“photobleaching” of the visual pigment or simply “bleaching”) is known to photo-isomerize almost all 11-cis-retinal in the retina. The recovery of 11-cis-retinal after bleaching can be used to estimate the activity of isomerase in vivo.
Delayed recovery, as represented by lower 11-cis-retinal oxime levels, indicates inhibition of isomerization reaction. Procedures were performed essentially as described by Golczak et al., Proc. Natl. Acad. Sci. USA 102:8162-67 (2005). See also Deigner et al., Science, 244: 968-71 (1989); Gollapalli et al., Biochim Biophys Acta. 1651: 93-101 (2003); Parish, et al., Proc. Natl. Acad. Sci. USA, 14609-13 (1998); Radu, et al., Proc Natl Acad Sci USA 101: 5928-33 (2004).
[…] Mice were orally gavaged with the several of the amine derivative compounds described herein. After 1-48 hours in the dark, the mice were exposed to photobleaching of 5,000 lux of white light for 10 minutes. The mice were allowed to recover 2 hours in the dark. The animals were then sacrificed by carbon dioxide inhalation. Retinoids were extracted from the eye and the regeneration of 11-cis-retinal was assessed at various time intervals.
All steps were performed in darkness with minimal redlight illumination (low light darkroom lights and redfiltered flashlights for spot illumination as needed) (see, e.g., Maeda et al., J. Neurochem 85:944-956, 2003; Van Hooser et al., J Biol Chem 277:19173-82, 2002). After the mice were sacrificed, the eyes were immediately removed and placed in liquid nitrogen for storage.
The eyes were placed in 500 μL of bis-tris propane buffer (10 mM, pH ˜7.3) and 20 μL of 0.8M hydroxylamine (pH˜7.3). The eyes were cut up into small pieces with small iris scissors and then thoroughly homogenized at 30000 rpm with a mechanical homogenizer (Polytron PT 1300 D) in the tube until no visible tissue remained. 500 μL of methanol and 500 μL of heptane were added to each tube. The tubes were attached to a vortexer so that the contents were mixed thoroughly for 15 minutes in room temperature. The organic phase was separated from the aqueous phase by centrifugation for 10 min at 13K rpm, 4° C. 240 μL of the solution from the top layer (organic phase) was removed and transferred to clean 300 μl glass inserts in HPLC vials using glass pipette and the vials were crimped shut tightly.
The samples were analyzed on an Agilent 1100 HPLC system with normal phase column: SILICA (Beckman Coutlier, dp 5 μm, […]). The running method has a flow rate of 1.5 ml/min; solvent components are 15% solvent 1 (1% isopropanol in ethyl acetate), and 85% solvent 2 (100% hexanes). Loading volume for each sample is 100 μl; detection wavelength is 360 nm. The area under the curve for 11-cis retinal oxime was calculated by Agilent Chemstation software and was recorded manually. Data processing was performed using Prizm software.
Positive control mice (no compound administered) were sacrificed fully dark-adapted and the eye retinoids analyzed. Light (bleached) control mice (no compound administered) were sacrificed and retinoids isolated and analyzed immediately after light treatment. The animals were orally gavaged with 1 mg/kg compound, then “photo-bleached” (5000 Lux white light for 10 minutes) at 4, 24 and 48 hours after dosing, and returned to darkness to allow recovery of the 11-cis-retinal content of the eyes. Mice were sacrificed 2 hours after bleaching, eyes were enucleated, and retinoid content was analyzed by HPLC.
A dose response in vivo isomerase inhibition study was performed with several of the amine derivative compounds described herein. Six-week old dark-adapted CD-1 (albino) male mice were orally gavaged with 0.03, 0.1, 0.3, 1 and 3 mg/kg of compound in sterile water as solution, and photobleached 4 hours after dosing. […]

[2] = system: retinoid nuclear receptors (RAR and RxR); experiment: Retinoid nuclear receptor activity

SMILES: CCCC(O)(CCC)CCc1cccc(CCCN)c1 [Example 3, 4-(3-(3-aminopropyl)phenethyl)heptan-4-ol]
- % Inhibition 1 mg/kg 4 h [1]: 36%
- % Inhibition 1 mg/kg 24 h [1]: 13%
- % Inhibition 5 mg/kg 4 h [1]: 95%
- % Inhibition 5 mg/kg 24 h [1]: 0%
- ED50 ([1]; estimated): 2 mg/kg

SMILES: NCCCc1cccc(CCC2(O)CCCCC2)c1 [Example 7, 1-(3-(3-aminopropyl)phenethyl)cyclohexanol]
- effects on retinoid nuclear receptors (RAR and RxR) [2]: did not show significant effects
- % Inhibition 1 mg/kg 4 h [1]: 23%
- % Inhibition 1 mg/kg 24 h [1]: 12%

SMILES: CCCC(O)(CCC)CCc1cccc(OCCN)c1 [Example 9, 4-(3-(2-aminoethoxy)phenethyl)heptan-4-ol]
- % Inhibition 1 mg/kg 4 h [1]: 12%
- % Inhibition 1 mg/kg 24 h [1]: 6%

SMILES: NCCOc1cccc(CCC2(O)CCCCCC2)c1 [Example 10, 1-(3-(2-aminoethoxy)phenethyl)cycloheptanol]
- % Inhibition 1 mg/kg 4 h [1]: 9%
- % Inhibition 1 mg/kg 24 h [1]: 1%

SMILES: NCCOc1cccc(CCC2(O)CCSCC2)c1 [Example 11, 4-(3-(2-aminoethoxy)phenethyl)tetrahydro-2H-thiopyran-4-ol]
- % Inhibition 1 mg/kg 4 h [1]: 0%
- % Inhibition 1 mg/kg 24 h [1]: 0%

SMILES: NCCOc1cccc(CCC2(O)CCCCC2)c1 [Example 12, 1-(3-(2-aminoethoxy)phenethyl)cyclohexanol]
- effects on retinoid nuclear receptors (RAR and RxR) [2]: did not show significant effects
- % Inhibition 1 mg/kg 4 h [1]: 27%
- % Inhibition 1 mg/kg 24 h [1]: 12%

SMILES: NCCC(O)c1cccc(CCC2(O)CCCCC2)c1 (stereo not shown) [Example 15, 1-(3-(3-amino-1-hydroxypropyl)phenethyl)cyclohexanol]
- ED50 ([1]; estimated): 2 mg/kg

SMILES: NCCC(O)c1cccc(CCC2(O)CCCCCC2)c1 (stereo not shown) [Example 16, 1-(3-(3-amino-1-hydroxypropyl)phenethyl)cycloheptanol]
- effects on retinoid nuclear receptors (RAR and RxR) [2]: did not show significant effects
- % Inhibition 1 mg/kg 4 h [1]: 6%
- % Inhibition 1 mg/kg 24 h [1]: 0%

SMILES: NCCC(O)c1cccc(CCC2CCCC2)c1 (stereo not shown) [Example 17, 3-amino-1-(3-(2-cyclopentylethyl)phenyl)propan-1-ol]
- % Inhibition 1 mg/kg 4 h [1]: 84%
- % Inhibition 1 mg/kg 24 h [1]: 0%

SMILES: CCCC(O)(CCC)CCc1cccc(C(O)CCN)c1 (stereo not shown) [Example 19, 4-(3-(3-amino-1-hydroxypropyl)phenethyl)heptan-4-ol]
- Inhibition of recovery of 11-cis retinal (oxime), dose dependence ([1]; 0.03-3 mg/kg oral, 4 hours post dosing): dose related
- ED50 (dose of compound that gives 50% inhibition of 11-cis retinal (oxime) recovery) ([1]; CD-1 male mice, oral gavage, photobleached 4 hours after dosing, estimated): 0.65 mg/kg
- ED50 ([1]; estimated): 0.651 mg/kg

SMILES: NCCCc1cccc(CCC2(O)CCCCCC2)c1 [Example 20, 1-(3-(3-aminopropyl)phenethyl)cycloheptanol]
- effects on retinoid nuclear receptors (RAR and RxR) [2]: did not show significant effects
- % Inhibition 1 mg/kg 4 h [1]: 0%
- % Inhibition 1 mg/kg 24 h [1]: 2%

SMILES: CCCCCc1cccc(CCCN)c1 [Example 27, 3-(3-pentylphenyl)propan-1-amine]
- % Inhibition 1 mg/kg 4 h [1]: 6%
- % Inhibition 1 mg/kg 24 h [1]: 29%

SMILES: CC(C)(C)CCc1cccc(CCCN)c1 [Example 29, 3-(3-(3,3-dimethylbutyl)phenyl)propan-1-amine]
- % Inhibition 1 mg/kg 4 h [1]: 0%
- % Inhibition 1 mg/kg 24 h [1]: 0%
- % Inhibition 5 mg/kg 4 h [1]: 62%
- % Inhibition 5 mg/kg 24 h [1]: 0%
- ED50 ([1]; estimated): 4 mg/kg

SMILES: NCCCc1cccc(CCCCc2ccccc2)c1 [Example 35, 3-(3-(4-phenylbutyl)phenyl)propan-1-amine]
- % Inhibition 1 mg/kg 4 h [1]: 0%
